According to patent US20250011296A1, “MODULATORS OF MOLECULAR TARGETS EXPRESSED IN METABOLIC AND INFLAMMATORY DISORDERS” (Ohio State Innovation Foundation, priority 2021, published 2025):

Legend:
[1] = target: T1, PARP-5 (tankyrase-1, TNKS1) (Homo sapiens, UniProt O95271); assay: PARP-5 enzyme assay (TNKS1 Histone Ribosylation Assay kit); assay type: biochemical; conditions: for PARP-5 inhibitory activity / PARP-5% inhibition: 50 μg/mL; for PARP-5% inhibition: Table 20 summary; for inhibition at 50 µg/mL: read-out: PARP-5% inhibition, Table 15, isolates at 50 μg/mL
T1 construct: purchased BPS Bioscience Inc
T1 sequence (O95271 1-1327): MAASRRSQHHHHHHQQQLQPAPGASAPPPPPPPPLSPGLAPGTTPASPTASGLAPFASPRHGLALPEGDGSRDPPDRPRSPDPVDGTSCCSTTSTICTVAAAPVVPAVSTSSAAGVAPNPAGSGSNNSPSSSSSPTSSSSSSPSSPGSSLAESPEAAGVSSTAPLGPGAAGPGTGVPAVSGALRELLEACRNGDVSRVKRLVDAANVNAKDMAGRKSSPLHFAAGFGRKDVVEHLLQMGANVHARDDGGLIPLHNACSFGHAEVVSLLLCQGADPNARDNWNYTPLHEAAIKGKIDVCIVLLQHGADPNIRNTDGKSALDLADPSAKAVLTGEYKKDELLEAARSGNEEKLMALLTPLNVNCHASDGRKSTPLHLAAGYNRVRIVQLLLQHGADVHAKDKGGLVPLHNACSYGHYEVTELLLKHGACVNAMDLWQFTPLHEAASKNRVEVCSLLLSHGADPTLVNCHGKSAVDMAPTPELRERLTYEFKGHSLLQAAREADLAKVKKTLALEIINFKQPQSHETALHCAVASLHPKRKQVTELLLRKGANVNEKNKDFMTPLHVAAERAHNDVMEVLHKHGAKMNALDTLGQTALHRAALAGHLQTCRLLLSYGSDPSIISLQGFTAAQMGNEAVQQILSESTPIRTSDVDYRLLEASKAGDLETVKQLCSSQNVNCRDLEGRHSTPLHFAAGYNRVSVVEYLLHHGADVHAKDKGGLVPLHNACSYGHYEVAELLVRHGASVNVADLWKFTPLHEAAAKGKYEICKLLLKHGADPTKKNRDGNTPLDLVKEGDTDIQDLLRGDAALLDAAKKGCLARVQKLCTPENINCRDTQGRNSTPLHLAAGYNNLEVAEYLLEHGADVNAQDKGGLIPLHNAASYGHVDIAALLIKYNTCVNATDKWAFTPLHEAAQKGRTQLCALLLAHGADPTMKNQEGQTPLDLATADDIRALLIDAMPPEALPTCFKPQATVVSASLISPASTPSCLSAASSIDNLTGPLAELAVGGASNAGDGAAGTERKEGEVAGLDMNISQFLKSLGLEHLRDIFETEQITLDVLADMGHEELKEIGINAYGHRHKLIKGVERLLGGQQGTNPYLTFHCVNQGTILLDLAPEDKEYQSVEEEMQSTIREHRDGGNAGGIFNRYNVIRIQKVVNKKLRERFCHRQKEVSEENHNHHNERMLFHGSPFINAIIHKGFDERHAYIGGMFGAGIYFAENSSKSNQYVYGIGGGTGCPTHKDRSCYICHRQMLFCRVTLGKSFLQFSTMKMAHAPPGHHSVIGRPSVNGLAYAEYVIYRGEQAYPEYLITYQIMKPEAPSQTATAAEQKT
Method: Poly (ADP-ribose) polymerase 5 (PARP-5, also known as tankyrase-1 or TNKS1), is a nuclear enzyme involved in repairing single strand DNA breaks. Agonists of PARP-5 induce DNA repair, but the cost of PARP-5 activation is to slow glycolysis and limit GLUT-4-mediated glucose uptake. Small-molecule inhibition of the PARP-5 enzyme potentiates antidiabetic activities by increasing glucose uptake and insulin sensitivity. Extracts and compounds from the arils of M. fragrans were tested by using the TNKS1 Histone Ribosylation Assay kit (BPS Bioscience Inc.) according to the kit protocol. First, microplate wells were coated with immobilized histone substrate (50 μL) overnight at 4° C., then washed 3 times with PBS-Tween (200 μL). The wells were treated with blocking buffer and washed 3 times with PBS-Tween. The reaction mixture, which contained TNKS assay buffer and NAD+, was added to each sample well. Diluted sample solutions were added to the corresponding wells to achieve final concentrations of 50 μg/mL, followed by TNKS1 enzyme. After 1 hour, the plates were washed 3 times with PBS-Tween and incubated with primary antibody (1:800) for another hour. Following PBS-Tween wash, the secondary-HRP antibody was added (1:1000), incubated for 30 minutes, and finally chemiluminescent substrate was added. The plates were immediately measured for luminescence in the FLUOstar Optima plate reader (BMG Labtechnologies, GmbH, Inc.). The positive control included TNKS1 enzyme, NAD+, and DMSO; the substrate control included enzyme and DMSO; and the negative control included NAD+ and DMSO.297,304 The mace ethyl acetate fractions were screened for PARP-5 inhibition (Table 4).

[2] = system: PPAR-γ expression; assay: Larval diabetic zebrafish assay, Western blot of PPAR-γ; assay type: in vivo; conditions: diabetic zebrafish larvae, 10 μM
Method: Western blot analysis of zebrafish expression levels for glycated hemoglobin, metabolic enzymes, and molecular targets NFκB and PPAR-γ was performed to evaluate potential lead improvement and to discover possible mechanisms of action.
Wild-type zebrafish were sorted into 24-well microplates with 10 fish per well for a four-phase treatment cycle. At 72 hpf, type 2 diabetes was induced by administering 0.5 mg/mL alloxan in fish water for percutaneous absorption. […] At 78 hpf, the incubation solution was changed to 10 mg/ml D-glucose for 30 minutes, followed by a phase-four rinse in fresh system w Following the four-phase treatment cycle, zebrafish treatment groups were snap frozen in microcentrifuge tubes on dry ice, stored overnight at −80° C., thawed, and homogenized with 2 μL PBS per animal. Following centrifugation (60 minutes at 4° C. and 17,000 rpm), protein content of the homogenate supernatant was determined using the Pierce BCA Protein Assay kit (Pierce Biotechnology). Homogenates were analyzed by Western blot with equal amounts of total protein (20 μg) in each sample and using 4×LDS loading buffer (NuPAGE Life Technologies).
Electrophoresis was performed with NuPAGE MES SDS Running Buffer and using the XCell SureLock Mini-Cell Electrophoresis System (Life Technologies). Proteins separated on the gel were transferred to a PVDF membrane using TBST buffer. The blots were blocked in 3% BSA in TBST and subsequently probed overnight with primary antibodies (1:1000 in 1% BSA in TBST) against each target of interest. Following TBST rinses, secondary HRP-conjugated antibodies (1:2000) were applied to the membrane for 60 minutes. The HRP conjugated antibodies were detected using SuperSignal West Femto chemiluminescent substrate (Pierce Biotechnology) and immunoblot images were captured using the luminometer and Lumi Analyst 3.0 software.
Band densities were determined using ImageJ Gel Analysis to determine expression levels of each protein of interest. Expression levels of HbA1C, PPAR-γ, and NFκB were organized into a bar graphs (FIG. 5) with band densities calculated in comparison to the housekeeping gene β-actin, normalized to the untreated diabetic group (B) of zebrafish. […].

[3] = preliminary Western blot (FIG. 4/5)

Compound	PARP-5 inhibitory activity [1]	PARP-5% inhibition [1] [%]	inhibition at 50 µg/mL [1] [%]	PPAR-γ expression (band density) [2, 3]	PPAR-γ expression (band density) ([2]; duplicate Western blot (FIG. 8))
C/C=C/c1cc(OC)c2c(c1)[C@H](C)[C@@H](c1ccc3c(c1)OCO3)O2 [Compound 41, licarin B]	not effective PARP-5 inhibitors	<50	< 50	did not upregulate PPAR-γ expression	
C/C=C/c1cc(OC)c2c(c1)[C@H](C)[C@@H](c1ccc(O)c(OC)c1)O2 [Compound 42, licarin A]	not effective PARP-5 inhibitors	<50	< 50	greater PPAR-γ expression that 41	reliably intermediate between the rosiglitazone-treated and untreated diabetic groups
